Reference: patent publication US8148086B2, “Methods to predict and prevent resistance to taxoid compounds” (Children's Medical Center Corporatioin, priority 2005, dated 2012)

Legend:
[1] = tested on: A549 and A549-TR cells; experiment: MTT cytotoxicity assay, paclitaxel on cell proliferation/survival; format: cell-based, human; conditions: MTT 72 h after paclitaxel addition
Experimental: (§1) FIGS. 1A and 1B show graphs illustrating the effect of paclitaxel on cell proliferation. A549 and A549 TR cell lines (FIG. 1A) and MES-SA and MES-SA-DX5 cell lines (FIG. 1B) were treated with various concentrations of paclitaxel. 24 hours after 1×10^4 cells/well were seeded in 96 well plates. MTT assay for cell survival was performed 72 h after paclitaxel addition. X axis: concentration of paclitaxel, Y axis-% survival.
(§2) Cell Culture. The human non-small cell lung carcinoma cell line A549 and its Paclitaxel-resistant derivative cell lines were cultured in F-12 Ham nutrient mixture (Invitrogren, Carlsbad, Calif.) supplemented with 10% fetal bovine serum (FBS) at 37° C. in a humidified atmosphere with 5% CO2/95% air. The paclitaxel-resistant cell lines were grown under selective pressure (100 nM paclitaxel), then placed in Paclitaxel-free culture medium 5-7 days before experiments were performed. The uterine sarcoma cells (MES-SA) and the multidrug resistant derivative (MES-SA/DX5) were maintained in McCoy's 5A media (ATCC, Rockville, Md.) supplemented with 10% FBS. […]
(§3) Cytotoxicity Assays. Cell growth inhibition was determined by 3-(4,5-dimethylthiazol-2-yl)-2,5-diphenyltetrazolium (MTT) bromide assay using MTT (Sigma Chemicals, St. Louis, Mo.) reagent in 96-well plates. […] Absorbance was determined using a 96-well SpectraMax plate reader (Molecular Devices, Sunnyvale, Calif.) at 570 nm.

[2] = tested on: MES-SA and MES-SA/DX5 cells; experiment: as above; format: cell-based, human; conditions: MTT 72 h after paclitaxel addition
Experimental: as §1, §2, §3

## CC(=O)O[C@H]1C(=O)[C@@]2(C)[C@H]([C@H](OC(=O)c3ccccc3)[C@]3(O)C[C@H](OC(=O)[C@H](O)[C@@H](NC(=O)c4ccccc4)c4ccccc4)C(C)=C1C3(C)C)[C@]1(OC(C)=O)CO[C@@H]1C[C@@H]2O [paclitaxel, Paclitaxel]
[1]
  difference in sensitivity to paclitaxel, resistant subline vs parental line: greater than 100 fold
[2]
  difference in sensitivity to paclitaxel, resistant subline vs parental line: greater than 100 fold
